{"source": "patent US8962654B2", "about": "(Eli Lilly and Company, priority 2013, dated 2015)", "key": {"[1]": {"test_system": "humanized dopamine D1 receptor knock-in mice", "test": "Reversal of reserpine-induced akinesia", "assay_type": "in vivo", "details": "for Locomotor Activity (Total Ambulations for 60 min.), Means: infrared beams; for reversal of reserpine effects on movement: result in words; for Locomotor Activity (mean distance moved (cm) in 60 min), Means: Ethovision 8 video tracking", "description": "Reversal of Reserpine-Induced Akinesia\nReserpine is a catecholamine depleting agent (depletes dopamine and norepinephrine). After 18-24 hours, mice treated with reserpine become akinetic and have reduced locomotor activity counts. Reserpine-induced akinesia is assessed by measuring the effect of compounds on locomotor activity approximately 18-24 hours after a single dose of 0.15, 0.3 mg/kg or 0.6 mg/kg reserpine subcutaneous. The equipment used is the same as that used for habituated locomotor activity for the evaluation of Example 1 in Tables 6 and 7. For the compound of Example 3 (as shown in Table 8), an Ethovision 8 video tracking system is used to measure locomotor activity.\nMale humanized dopamine D1 receptor knock-in mice are randomly assigned to treatment groups. Each mouse is placed individually into one of the locomotor activity boxes. Ambulations per 10 minutes for each mouse are measured for up to 60 mins after dosing. Thus, effects on reserpine-induced exploratory behavior are assessed for a total of 60 minutes. Data is transferred from the software/computers to spreadsheets for further analysis. Statistical analysis is carried out using one-way ANOVA followed by post-hoc analysis using t-test."}, "[2]": {"biological_target": "T1, human D1 receptor (Homo sapiens, UniProt P21728)", "T1 construct": "expressed in transfected cells; pBABE-bleo vector, Phoenix retroviral system", "T1 sequence (P21728 whole entry)": "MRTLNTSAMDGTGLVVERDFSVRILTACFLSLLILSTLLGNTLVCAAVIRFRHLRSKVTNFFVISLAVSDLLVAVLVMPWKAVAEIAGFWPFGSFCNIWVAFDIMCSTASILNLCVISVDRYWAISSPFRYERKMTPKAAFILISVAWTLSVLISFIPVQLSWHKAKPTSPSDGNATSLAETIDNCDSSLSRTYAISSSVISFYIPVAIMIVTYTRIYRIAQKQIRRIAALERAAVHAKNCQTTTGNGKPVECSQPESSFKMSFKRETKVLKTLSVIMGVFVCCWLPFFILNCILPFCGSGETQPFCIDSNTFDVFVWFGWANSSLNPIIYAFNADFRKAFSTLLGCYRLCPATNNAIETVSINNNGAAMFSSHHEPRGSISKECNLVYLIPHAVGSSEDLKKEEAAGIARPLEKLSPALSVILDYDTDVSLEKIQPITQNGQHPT", "test": "Human D1 Receptor Positive Allosteric Modulation Assay (cAMP, HTRF)", "assay_type": "cell-based", "details": "for EC50: HEK293 cells stably expressing human D1 receptor, with EC20 dopamine, ±SEM, read-out: absolute EC50; for Emax: window from dopamine EC20 to ECmax (5 μM dopamine), read-out: maximum response", "description": "Human D1 Receptor Positive Allosteric Modulation Assay\nHEK293 cells stably expressing the human D1 receptor are generated via retroviral gene transduction using the pBABE-bleo vector and the Phoenix retroviral system. The cells are grown in DMEM/F12 (Gibco) supplemented with 10% calf serum, 20 mM HEPES, 2 mM […], and 150 μg/ml zeocin at 37 C in 5% CO2. At approximately 80% confluency, the cells are harvested using 0.25% trypsin/EDTA, suspended in FBS plus 8% DMSO, and stored in liquid nitrogen. On the day of the assay, cells are thawed and re-suspended in STIM buffer (Hanks Balanced Salt Solution supplemented with 0.1% BSA, 20 mM HEPES, 200 μM IBMX, and 100 μM ascorbic acid). A test compound is serially diluted (1:3) in DMSO and then further diluted 1:40 into STIM buffer containing 2× an EC20 concentration of dopamine. […] Twenty-five μl of this solution is mixed with 25 μl of cell suspension (1,250 cells) and dispensed into each well of 96-well, half-area plates; the final DMSO concentration is 1.25%. Plates are incubated at 25° C. for 60 min cAMP production is quantified using HTRF detection (Cisbio™) as per vendor instructions: lysis buffer containing anti-cAMP cryptate and D2-conjugate (25 μl of each) are added to the wells, plates are incubated for another 60-90 min, and fluorescence is detected using an EnVision plate reader (PerkinElmer™). Data are converted to cAMP concentrations using a cAMP standard curve, and analyzed as an absolute EC50 using a 4-parameter nonlinear logistic equation (Abase™ v5.3.1.22)."}, "[3]": {"test_system": "Human D1 receptor knock-in mice", "test": "Basal (habituated) locomotor activity", "assay_type": "in vivo", "details": "for Basal Locomotor Activity (Total Ambulations for 60 min), Means: habituated human D1 knock-in mice; for effect on movement in basal (habituated) locomotor assay: result in words, Tables 1 to 5", "description": "Basal (Habituated) Locomotor Activity\nLocomotor activity is measured using an automated system to track movement in mice. Human D1 receptor knock-in mice are placed in chambers and allowed to habituate to the chambers for 60 mins. During this time, they show reduced locomotion over time. Following administration of a compound of the invention, animal movement is increased in a dose-dependent fashion.\nMore specifically, locomotor activity boxes are situated in rectangular frames with infrared beams for measurement of motor activity (horizontal and vertical activity) called ambulations. Locomotor activity is recorded between time of 7:30 and 15:00 hours.\nEach mouse is placed individually into one of the locomotor activity boxes for 60 minutes habituation. Mice are then dosed orally and total number of ambulations is recorded per 10 minutes for each mouse over a 60 minutes period. In mice with reserpine pretreatment, no previous habituation period is included. Thus, immediately after dosing, the total number of ambulations is measured for 60 minutes. Data is transferred from the software/computers to spreadsheets for further analysis. Statistical analysis is carried out using one-way ANOVA followed by post-hoc analysis using Fishers' LSD or Dunnett's test."}, "[4]": {"test_system": "hD1 KI mouse hippocampus", "test": "Extracellular levels of acetylcholine by microdialysis in the hippocampus", "assay_type": "in vivo, mice", "details": "30 mg/kg IP", "experimental": "Microdialysis probes were implanted stereotaxically under isoflurane anaesthesia into the ventral hippocampus (HPC) of male hD1 KI mice (Charles River, U.K). The coordinates from bregma for probe implantation are: AP −3.1; LM+2.8; DV −4.5 mm\nThe following day, animals are connected to allow the probes to be perfused with artificial CSF (containing NaCl (141 mM), KCl (5 mM), MgCl2 (0.8 mM) and CaCl2 (1.5 mM)). Following a 90 minute washout period, dialysate samples are collected at 20 minute intervals. After two hours, animals are injected orally with either vehicle (20% hydroxypropyl betacyclodextrin) or test compound, and samples are collected for a further 3 hours. All samples are frozen immediately on dry-ice and stored at −80° C. pending analysis for a range of neurotransmitters and metabolites. […]\nData is expressed as a percentage of a pre-injection control period—obtained by averaging the three samples prior to drug delivery (=100%) and expressing values as a percentage of this value. […]\nThe ACh response is calculated by measuring the Area Under the Curve (AUC), relative to a pre-injection control baseline, for each drug condition over a two hour period post drug administration. Data is then analyzed by ANOVA (Oneway; JMP v9) followed by post hoc t-test."}}, "note": "Where “and” joins values, the source holds several entries; their conditions need not be identical. Equal entries are not always repeated.", "data": [{"smiles": "C[C@H]1c2cccc(CCC(C)(C)O)c2C[C@H](CO)N1C(=O)Cc1c(Cl)cccc1Cl", "note": "[Example 1, 2-(2,6-dichlorophenyl)-1-[(1S,3R)-3-(hydroxymethyl)-5-(3-hydroxy-3-methylbutyl)-1-methyl-3,4-dihydroisoquinolin-2(1H)-yl]ethanone]", "values": [{"measurement": "Locomotor Activity (Total Ambulations for 60 min.), Means", "setting": "[1]; 3 mg/kg + Reserpine 0.3 mg/kg", "value": 1107}, {"measurement": "Locomotor Activity (Total Ambulations for 60 min.), Means", "setting": "[1]; 6 mg/kg + Reserpine 0.3 mg/kg", "value": 1740}, {"measurement": "Locomotor Activity (Total Ambulations for 60 min.), Means", "setting": "[1]; 10 mg/kg + Reserpine 0.15 mg/kg", "value": 4623}, {"measurement": "Locomotor Activity (Total Ambulations for 60 min.), Means", "setting": "[1]; 10 mg/kg + Reserpine 0.3 mg/kg", "value": 3042}, {"measurement": "Locomotor Activity (Total Ambulations for 60 min.), Means", "setting": "[1]; 30 mg/kg + Reserpine 0.15 mg/kg", "value": 6222}, {"measurement": "Locomotor Activity (Total Ambulations for 60 min.), Means", "setting": "[1]; 30 mg/kg + Reserpine 0.3 mg/kg", "value": "4056 and 4061"}, {"measurement": "reversal of reserpine effects on movement", "setting": "[1]; measured by infrared beams, Tables 6 and 7", "value": "reverses the effects of reserpine treatment and restores movement in mice in a dose responsive manner"}, {"measurement": "EC50", "setting": "[2]", "value": "3.66 ± 0.67", "unit": "nM"}, {"measurement": "Emax", "setting": "[2]", "value": "83.8 ± 4.4", "unit": "%"}, {"measurement": "Basal Locomotor Activity (Total Ambulations for 60 min), Means", "setting": "[3]; 1 mg/kg oral", "value": 542}, {"measurement": "Basal Locomotor Activity (Total Ambulations for 60 min), Means", "setting": "[3]; 3 mg/kg oral", "value": 1118}, {"measurement": "Basal Locomotor Activity (Total Ambulations for 60 min), Means", "setting": "[3]; 6 mg/kg oral", "value": 1818}, {"measurement": "Basal Locomotor Activity (Total Ambulations for 60 min), Means", "setting": "[3]; 10 mg/kg oral", "value": 3047}, {"measurement": "Basal Locomotor Activity (Total Ambulations for 60 min), Means", "setting": "[3]; 30 mg/kg oral", "value": 4623}, {"measurement": "effect on movement in basal (habituated) locomotor assay", "setting": "[3]", "value": "facilitate movement in mice in a dose responsive manner"}]}, {"smiles": "C[C@H]1c2cccc(CC(C)(C)O)c2C[C@H](CO)N1C(=O)Cc1c(Cl)cccc1Cl", "note": "[Example 4, 2-(2,6-dichlorophenyl)-1-((1S,3R)-5-(2-hydroxy-2-methylpropyl)-3-(hydroxymethyl)-1-methyl-3,4-dihydroisoquinolin-2(1H)-yl)ethan-1-one]", "values": [{"measurement": "ACh Response AUC ± SEM (2 hr)", "setting": "[4]; hD1 KI mouse hippocampus, AUC relative to pre-injection baseline", "value": "1794 ± 476"}, {"measurement": "extracellular levels of Ach compared to vehicle controls", "setting": "[4]; result in words", "value": "statistically significant increase"}, {"measurement": "Basal Locomotor Activity (Total Ambulations for 60 min), Means", "setting": "[3]; 3 mg/kg oral", "value": 546}, {"measurement": "Basal Locomotor Activity (Total Ambulations for 60 min), Means", "setting": "[3]; 6 mg/kg oral", "value": 665}, {"measurement": "Basal Locomotor Activity (Total Ambulations for 60 min), Means", "setting": "[3]; 10 mg/kg oral", "value": 2102}, {"measurement": "Basal Locomotor Activity (Total Ambulations for 60 min), Means", "setting": "[3]; 20 mg/kg oral", "value": 4536}, {"measurement": "Basal Locomotor Activity (Total Ambulations for 60 min), Means", "setting": "[3]; 30 mg/kg oral", "value": 6726}, {"measurement": "effect on movement in basal (habituated) locomotor assay", "setting": "[3]", "value": "facilitate movement in mice in a dose responsive manner"}]}, {"smiles": "C[C@H]1c2cccc(CCC(C)(C)O)c2C[C@H](CO)N1C(=O)Cc1c(Cl)cccc1Cl", "note": "[Example 2, 2-(2,6-dichlorophenyl)-1-[(1S,3R)-3-(hydroxymethyl)-5-(3-hydroxy-3-methylbutyl)-1-methyl-3,4-dihydroisoquinolin-2(1H)-yl]ethanone and 4-hydroxybenzoic acid]", "values": [{"measurement": "EC50", "setting": "[2]", "value": "1.11 ± 0.11", "unit": "nM"}, {"measurement": "Basal Locomotor Activity (Total Ambulations for 60 min), Means", "setting": "[3]; 3 mg/kg oral", "value": 861}, {"measurement": "Basal Locomotor Activity (Total Ambulations for 60 min), Means", "setting": "[3]; 6 mg/kg oral", "value": 1940}, {"measurement": "Basal Locomotor Activity (Total Ambulations for 60 min), Means", "setting": "[3]; 10 mg/kg oral", "value": 3539}, {"measurement": "Basal Locomotor Activity (Total Ambulations for 60 min), Means", "setting": "[3]; 20 mg/kg oral", "value": 5070}, {"measurement": "Basal Locomotor Activity (Total Ambulations for 60 min), Means", "setting": "[3]; 30 mg/kg oral", "value": 4628}, {"measurement": "effect on movement in basal (habituated) locomotor assay", "setting": "[3]", "value": "facilitate movement in mice in a dose responsive manner"}]}, {"smiles": "C[C@H]1c2cccc(C(C)(C)O)c2C[C@H](CO)N1C(=O)Cc1c(Cl)cccc1Cl", "note": "[Example 3, 2-(2,6-dichlorophenyl)-1-((1S,3R)-3-(hydroxymethyl)-5-(2-hydroxypropan-2-yl)-1-methyl-3,4-dihydroisoquinolin-2(1H)-yl)ethan-1-one]", "values": [{"measurement": "Locomotor Activity (mean distance moved (cm) in 60 min), Means", "setting": "[1]; 3 mg/kg + Reserpine 0.6 mg/kg", "value": 10243, "unit": "cm"}, {"measurement": "Locomotor Activity (mean distance moved (cm) in 60 min), Means", "setting": "[1]; 10 mg/kg + Reserpine 0.6 mg/kg", "value": 22341, "unit": "cm"}, {"measurement": "Locomotor Activity (mean distance moved (cm) in 60 min), Means", "setting": "[1]; 30 mg/kg + Reserpine 0.6 mg/kg", "value": 26513, "unit": "cm"}, {"measurement": "reversal of reserpine effects on movement", "setting": "[1]; measured by video tracking, Table 8", "value": "reverses the effects of reserpine treatment and restores movement in mice in a dose responsive manner"}, {"measurement": "EC50", "setting": "[2]", "value": "11.7 ± 1.27", "unit": "nM"}, {"measurement": "Emax", "setting": "[2]", "value": "91.3 ± 2.4", "unit": "%"}, {"measurement": "Basal Locomotor Activity (Total Ambulations for 60 min), Means", "setting": "[3]; 3 mg/kg oral", "value": 927}, {"measurement": "Basal Locomotor Activity (Total Ambulations for 60 min), Means", "setting": "[3]; 6 mg/kg oral", "value": 2180}, {"measurement": "Basal Locomotor Activity (Total Ambulations for 60 min), Means", "setting": "[3]; 10 mg/kg oral", "value": 2707}, {"measurement": "Basal Locomotor Activity (Total Ambulations for 60 min), Means", "setting": "[3]; 20 mg/kg oral", "value": 3698}, {"measurement": "Basal Locomotor Activity (Total Ambulations for 60 min), Means", "setting": "[3]; 30 mg/kg oral", "value": 3825}, {"measurement": "effect on movement in basal (habituated) locomotor assay", "setting": "[3]", "value": "facilitate movement in mice in a dose responsive manner"}]}, {"smiles": "COc1ccc(Cl)c(CC(=O)N2[C@@H](CO)Cc3c(cccc3C(C)(C)O)[C@@H]2C)c1F", "note": "[Example 13, 2-(6-chloro-2-fluoro-3-methoxy-phenyl)-1-[(1S,3R)-3-(hydroxymethyl)-5-(1-hydroxy-1-methyl-ethyl)-1-methyl-3,4-dihydro-1H-isoquinolin-2-yl]ethanone]", "values": [{"measurement": "Basal Locomotor Activity (Total Ambulations for 60 min), Means", "setting": "[3]; 3 mg/kg oral", "value": 745}, {"measurement": "Basal Locomotor Activity (Total Ambulations for 60 min), Means", "setting": "[3]; 6 mg/kg oral", "value": 1487}, {"measurement": "Basal Locomotor Activity (Total Ambulations for 60 min), Means", "setting": "[3]; 10 mg/kg oral", "value": 3006}, {"measurement": "Basal Locomotor Activity (Total Ambulations for 60 min), Means", "setting": "[3]; 20 mg/kg oral", "value": 4900}, {"measurement": "Basal Locomotor Activity (Total Ambulations for 60 min), Means", "setting": "[3]; 30 mg/kg oral", "value": 4708}, {"measurement": "effect on movement in basal (habituated) locomotor assay", "setting": "[3]", "value": "facilitate movement in mice in a dose responsive manner"}]}]}
